Source: US20030096237A1, “Determination of the ability of patients to respond to a tumor treatment” (priority 2000, published 2003)

Tested on: CNCM I-2546
Experiment: oligonucleotide array analysis of IFN-α modulated gene expression
Format: cell-based, human
Description: All these cell lines were cultured in RPMI medium supplemented with 10% FCS, glutamine (2 mM), sodium pyruvate (1 mM), non-essential amino acids and HEPES buffer (10 mM) (all from GIBCO Life Sciences, Paisley, UK). When confluent, the cells were passaged by trypsinization.
Cultured melanoma cells were harvested by scraping and total cellular RNA was extracted. 10 μg from each sample were used directly as templates for cDNA synthesis using a commercial kit (Roche Molecular Biochemicals, Rotkreuz, Switzerland). The T7 promoter sequence incorporated into the cDNA synthesis primer allowed template amplification and biotin labeling by in vitro transcription using a commercial kit (Affymetrix, Santa Clara, Calif.). After alkaline heat fragmentation […] was hybridised to the array (Affymetrix, Santa Clara, Calif.) and all subsequent steps were performed following standard procedures as supplied with the arrays. Raw data were collected with a confocal laser scanner (Hewlett Packard, Palo Alto, Calif.) using GeneChip software v3.1 (Affymetrix, Santa Clara, Calif.).
Raw data were normalized based on the total chip signal obtained upon hybridisation of ME15 cell line cDNA. This array was selected because: i) the 5′/3′ intensity ratio of control genes was smaller than 3; ii)>25% of the genes are called “present” by Genechip; iii) the image appearance is homogeneous with low background and no sign of mechanical chip damage.
The normalized average difference (nAD) between the signals of the perfect and of the mismatch probesets for each gene was used as the expression level of a given gene. At least one nAD value in a pairwise comparison of data has to exceed 50 to be included. Based on nAD, change factors related to IFN-α exposure were also calculated. Negative nAD values were set to 20 in order to avoid the calculation of artificially high modifications. In order to exclude artefacts, only genes with robust change factors, greater than 2-fold, were included in the analysis. […] Genes were clustered according to their mode of regulation.
Total cellular RNA was extracted from the sensitive and resistant melanoma cell lines identified above, reverse transcribed and processed for hybridization to an oligonucleotide array (Hu6800FL, PN 900183) containing probe sets derived from 7000 full-length human genes. Expression levels for each gene were calculated as normalized average difference (nAD, see materials and methods).
Patterns of genes expressed in IFN-α sensitive and resistant melanoma cell lines were investigated upon 48 hour culture in the presence of IFN-α. CNCM I-2546 and CNCM I-2545 were studied in detail.
In Table 2 below, CNCM I-2546 and CNCM I-2545 cultured for 48 hours in the absence or in the presence of 100 U/ml IFN-α were used to assay cytokine modulated gene expression as matched with data obtained in fibrosarcoma cells. This analysis yielded six clusters of genes. […] Data are presented as average difference of signal intensity between match and mismatch probesets.
In Table 3 below, CNCM I-2546 and CNCM I-2545 cell lines cultured for 48 hours in the absence or in the presence of 100 U/ml IFN-α were used to identify novel cytokine induced genes whose expression was not found to be modulated in fibrosarcoma cells. Cluster 1 includes genes inducible in the CNCM I-2546 sensitive but not in the CNCM I-2545 resistant cell line. Cluster 2 comprises genes inducible in both lines. Data are presented as average difference of signal intensity between match and mismatch probesets.

[1] = CNCM I-2546, IFN-α 100 U/ml 48 hours

IFN-α
change factor (CF) D28137 bst-2 [1]: 9.89 | change factor (CF) D32050 alanyl-trna synthetase [1]: 19.33 | change factor (CF) D49824 hla-b null allele [1]: 5.42 | change factor (CF) D50914 EST [1]: 2.26 | change factor (CF) D78132 rheb gene, ras-related gtp binding protein gene [1]: 1.58 | change factor (CF) HG658 major histocompatibility complex, class 1 c [1]: 9.85 | change factor (CF) HG1612 macmarcks [1]: 2.59 | change factor (CF) HG2917 major histocompatibility complex, class i, e [1]: 4.53 | change factor (CF) J00105 beta-2 microglobulin gene [1]: 4.86 | change factor (CF) J00212 leukocyte interferon (ifn-alpha) [1]: −1.82 | change factor (CF) J03909 gamma-interferon-inducible protein (ip-30) [1]: 1.85 | change factor (CF) J04164 interferon-inducible protein 27-sep [1]: 102.3 | change factor (CF) J04182 lysosomal membrane glycoprotein-1 (lamp1) [1]: 1.69 | change factor (CF) J04444 cytochrome c-1 gene [1]: 3.16 | change factor (CF) K01900 lymphocyte interferon alpha type 201 [1]: 0.55 | change factor (CF) K03515 neuroleukin [1]: 3.37 | change factor (CF) L07633 interferon-gamma [1]: 1.52 | change factor (CF) L13210 mac-2 binding protein [1]: 3.54 | change factor (CF) L35249 vacuolar h + -atpase mr 56,000 subunit (ho57) [1]: 1.47 | change factor (CF) L37043 casein kinase i epsilon [1]: 21.05 | change factor (CF) L40387 thyroid receptor interactor (trip14) [1]: 3.25 | change factor (CF) L42243 ifnar2 gene (interferon receptor) [1]: −1.3 | change factor (CF) M13755 interferon-induced 17-kda/15-kda protein [1]: 34.8 | change factor (CF) M19650 2′,3′-cyclic nucleotide 3prime-phosphodiesterase [1]: 3.89 | change factor (CF) M30818 interferon-induced cellular resistance mediator protein [1]: −3.88 | change factor (CF) M31013 nonmuscle myosin heavy chain (nmhc) [1]: 2.34 | change factor (CF) M34338 spermidine synthase [1]: 2.29 | change factor (CF) M60784 ul snrnp-specific protein [1]: 8 | change factor (CF) M65028 heterogeneous nuclear ribonucleoprotein a/b [1]: 1.13 | change factor (CF) M79462 pml-1 [1]: −1.15 | change factor (CF) M92642 alpha-1 type xvi collagen (col16a1) [1]: 0 | change factor (CF) M94880 mhc class i (hla-a*8001) [1]: 3.61 | change factor (CF) M97935 transcription factor isgf-3 [1]: 13.8 | change factor (CF) M98343 amplaxin (ems1) [1]: 6.05 | change factor (CF) S81914 iex-1 = radiation-inducible immediate-early gene [1]: 9.06 | change factor (CF) U01824 glutamate/aspartate transporter [1]: 3.55 | change factor (CF) U09579 melanoma differentiation associated (mda-6) [1]: 3.35 | change factor (CF) U18009 chromosome 17q21 clone lf113 [1]: 2.93 | change factor (CF) U18018 ela enhancer binding protein (ela-f) [1]: 2.18 | change factor (CF) U22970 16-jun gene, interferon-inducible peptide (6-16) [1]: 53.95 | change factor (CF) U41515 dss1 [1]: −1.04 | change factor (CF) U47025 fetal brain glycogen phosphorylase b [1]: 3.79 | change factor (CF) U50327 protein kinase c substrate 80k-h gene (prkcsh) [1]: 2.9 | change factor (CF) U50648 interferon-inducible rna-dependent protein kinase (pkr) [1]: 2.55 | change factor (CF) U51127 interferon regulatory factor 5 [1]: 4.8 | change factor (CF) U52513 rig-g [1]: 0.96 | change factor (CF) U53830 interferon regulatory factor 7a [1]: 10.85 | change factor (CF) U61263 acetolactate synthase homolog [1]: 2.09 | change factor (CF) U65579 mitochondrial nadh dehydrogenase-ubiquinone [1]: 2.43 | change factor (CF) U65932 extracellular matrix protein 1 (ecm1) [1]: 2.02 | change factor (CF) U69126 fuse binding protein 2 (fbp2) [1]: 2.92 | change factor (CF) U70063 human acid ceramidase [1]: 1.57 | change factor (CF) U72206 guanine nucleotide regulatory factor (lfp40) [1]: 3.06 | change factor (CF) U72882 interferon-induced leucine zipper protein (ifp35) [1]: 24.1 | change factor (CF) U78525 human eukaryotic translation initiation factor (eif3) [1]: 1.14 | change factor (CF) U91316 acyl-coa thioester hydrolase [1]: 4.01 | change factor (CF) X04412 plasma gelsolin [1]: 2.48 | change factor (CF) X07730 prostate specific antigen [1]: 5.6 | change factor (CF) X15949 interferon regulatory factor-2 (irf-2) [1]: −2.35 | change factor (CF) X57351 1-8d gene from interferon-inducible gene family [1]: 113.8 | change factor (CF) X57522 ring4 cdna [1]: 3.85 | change factor (CF) X67325 p27 [1]: 19.5 | change factor (CF) X70848 protein phosphatase 1, catalytic subunit [1]: 2.03 | change factor (CF) X76538 mpv17 [1]: 3.06 | change factor (CF) X90846 mixed lineage kinase 2 [1]: −1.46 | change factor (CF) X95325 dna binding protein a variant [1]: 5.47 | change factor (CF) X96401 rox protein [1]: 3.21 | change factor (CF) Y00264 amyloid a4 precursor [1]: 2.42 | change factor (CF) Z26491 gene catechol o-methyltransferase [1]: 3.62 | change factor (CF) Z47055 farnesyl pyrophosphate synthetase like [1]: 1.01 | change factor (CF) Z56281 interferon regulatory factor 3 [1]: 5.8 | nAD D28137 bst-2 (Table 3, CNCM I-2546 (+) IFN-α 100 U/ml 48 hours, (−) 28): 305 | change factor (CF) D28137 bst-2 (Table 3, CNCM I-2546, IFN-α 100 U/ml 48 hours): 9.89
